Experimental data reported in ChEMBL document CHEMBL1201862, “PubChem BioAssay data set” (2004).
Active and inactive are the calls of the source.

Columns and labels:
Cytochrome P450 3A4 = Cytochrome P450 3A4 (Homo sapiens, UniProt P08684);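 note: CYP3A4 tested as one member of a cytochrome P450 panel screen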
Streptokinase A = molecular target: T1, Streptokinase A (Streptococcus pyogenes serotype M1, UniProt P10520); test: S. pyogenes streptokinase expression inhibitors, potency, dose response, plasminogen activation absorbance, OD405 (AID 1914); assay type: functional, Streptococcus pyogenes M1 GAS;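 note: secreted streptokinase activity via plasminogen activation per viability signal from cell pellet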
T1 sequence (P10520 whole entry): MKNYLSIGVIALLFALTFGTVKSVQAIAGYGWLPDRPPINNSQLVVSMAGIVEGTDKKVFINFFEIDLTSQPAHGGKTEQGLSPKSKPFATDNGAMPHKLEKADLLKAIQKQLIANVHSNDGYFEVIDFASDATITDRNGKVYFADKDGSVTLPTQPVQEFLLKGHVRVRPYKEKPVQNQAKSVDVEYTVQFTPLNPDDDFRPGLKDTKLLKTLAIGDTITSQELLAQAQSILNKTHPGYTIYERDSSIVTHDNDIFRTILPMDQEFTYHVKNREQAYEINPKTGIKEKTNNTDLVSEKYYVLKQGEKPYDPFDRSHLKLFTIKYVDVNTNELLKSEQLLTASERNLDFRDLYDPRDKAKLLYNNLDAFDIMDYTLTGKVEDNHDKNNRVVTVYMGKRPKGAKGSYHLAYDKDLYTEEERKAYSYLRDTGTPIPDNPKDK

Streptococcus = test: Group A Streptococcus viability loss, dose response, counter-screen for streptokinase expression inhibitor project, luminescence, BacTiterGlo (AID 1915); assay type: functional, organism-based;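 note: potency for reduction of bacterial viability or growth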
[1] = test system: Streptococcus sp. 'group A'; test: growth inhibition of control SK(-) GAS strain, dose response, counter-screen for streptokinase expression inhibitor project, luminescence, kanamycin, BacTiterGlo, confirmation (AID 1900); assay type: functional, organism-based
Cytochrome P450 2D6 = Cytochrome P450 2D6 (Homo sapiens, UniProt P10635);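 note: CYP2D6 member of a cytochrome P450 panel assay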
Cytochrome P450 2D6, sequence (P10635 whole entry): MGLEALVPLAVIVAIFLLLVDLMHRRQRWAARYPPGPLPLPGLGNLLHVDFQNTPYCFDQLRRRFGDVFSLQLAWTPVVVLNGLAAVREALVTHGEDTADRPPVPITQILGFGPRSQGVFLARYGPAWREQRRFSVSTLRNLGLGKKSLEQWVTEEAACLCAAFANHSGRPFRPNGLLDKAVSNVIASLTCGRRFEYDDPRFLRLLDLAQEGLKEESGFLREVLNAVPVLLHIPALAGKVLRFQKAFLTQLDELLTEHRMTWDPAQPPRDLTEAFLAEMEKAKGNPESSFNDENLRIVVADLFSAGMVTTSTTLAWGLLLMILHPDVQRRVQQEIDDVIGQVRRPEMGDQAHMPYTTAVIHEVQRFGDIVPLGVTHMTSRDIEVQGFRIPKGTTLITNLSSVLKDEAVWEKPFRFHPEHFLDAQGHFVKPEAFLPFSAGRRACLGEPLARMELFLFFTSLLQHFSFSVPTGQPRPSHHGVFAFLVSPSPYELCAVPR

INS1 = test: beta cell apoptosis inhibitors, cytokine rescue, dose response, luminescence, retest (AID 449756); assay type: functional, cell-based; conditions: Rattus norvegicus, INS1;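 note: cell death triggered by IL-1 beta plus TNF-alpha plus IFN-gamma mixture; protective hits raise ATP signal compared with cytokine alone wells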

Cytochrome P450 3A4, sequence (P08684 whole entry): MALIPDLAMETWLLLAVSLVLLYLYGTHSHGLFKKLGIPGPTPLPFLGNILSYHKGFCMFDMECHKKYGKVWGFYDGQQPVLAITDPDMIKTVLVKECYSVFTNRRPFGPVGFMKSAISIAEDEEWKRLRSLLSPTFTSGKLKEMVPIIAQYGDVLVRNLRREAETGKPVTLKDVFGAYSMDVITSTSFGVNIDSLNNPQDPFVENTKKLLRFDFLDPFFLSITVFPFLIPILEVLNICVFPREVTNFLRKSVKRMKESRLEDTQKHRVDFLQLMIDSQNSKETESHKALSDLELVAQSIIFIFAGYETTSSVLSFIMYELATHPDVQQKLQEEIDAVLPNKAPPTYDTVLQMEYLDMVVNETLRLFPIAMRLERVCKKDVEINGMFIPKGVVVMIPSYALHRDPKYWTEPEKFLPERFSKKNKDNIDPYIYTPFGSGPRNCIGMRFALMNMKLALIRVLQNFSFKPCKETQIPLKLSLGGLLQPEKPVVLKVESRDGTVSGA

CN1CCN(c2ncc3ncc(=O)n(Cc4cccs4)c3n2)CC1
AC50 (Cytochrome P450 3A4): 25.1 µM (inconclusive)

COc1ccc(N2C(=O)NC(NC(=O)c3ccncc3)(C(F)(F)F)C2=O)cc1 (stereo unspecified)
AC50 (Cytochrome P450 3A4): 22.4 µM (inconclusive)

COc1ccc(OC)c(-n2c(C)cc(/C=C3\C(=N)N4N=C(CC(=O)N5CCOCC5)SC4=NC3=O)c2C)c1
EC50 (Streptokinase A): > 150 µM (not active) | EC50 (Streptococcus): 87.9 µM (active) | EC50 [1]: 36.3 µM (active)

O=C(c1csnn1)N1CCC[C@@]2(CCN(c3ccccn3)C2)C1
AC50 (Cytochrome P450 3A4): 6.31 µM (inconclusive) | AC50 (Cytochrome P450 2D6): 12.6 µM (inconclusive)

CCCOc1ccc(/C=C/c2c([N+](=O)[O-])c(=O)n(C)c(=O)n2C)cc1
EC50 (Streptokinase A): > 150 µM (not active) | EC50 (Streptococcus): > 150 µM (not active) | EC50 [1]: 26.9 µM (active)

COc1ccc(CN(C)S(=O)(=O)c2nnc(NC(=O)c3ccccc3Br)s2)cc1
EC50 (Streptokinase A): 9.36 µM (active) | EC50 (Streptococcus): 98.9 µM (active) | EC50 [1]: 6.23 µM (active)

Cc1nc2cnc(N(C)C)nc2n(Cc2cccs2)c1=O
AC50 (Cytochrome P450 3A4): 3.16 µM (inconclusive) | AC50 (Cytochrome P450 2D6): 12.6 µM (inconclusive)

FC(F)(F)c1cc(Nc2ccccc2)nc(-c2ccccn2)n1
EC50 (Streptokinase A): > 150 µM (not active) | EC50 (Streptococcus): 88.6 µM (active) | EC50 [1]: 9.52 µM (active)

CCOc1ccc(-n2c(=O)[nH]cc(C(=O)Nc3ccc(OC)c(OC)c3)c2=O)cc1
AC50 (INS1): > 260 µM (inactive)

CC1CCN(C(=O)c2ccc(COc3ccccc3Cl)o2)CC1
AC50 (Cytochrome P450 3A4): 31.6 µM (inconclusive) | AC50 (Cytochrome P450 2D6): 28.2 µM (inconclusive)

COc1ccc2nc(Nc3nc4cc5c(cc4s3)OCO5)sc2c1
EC50 (Streptokinase A): > 150 µM (not active) | EC50 (Streptococcus): > 150 µM (not active) | EC50 [1]: 1.17 µM (active)

COc1ccccc1NC(=O)Cn1cc(C(=O)c2ccco2)c2ccccc21
AC50 (INS1): 9.44 µM (active)

CCC(C)Sc1ccc(-c2nc3ccc(C)cn3c2NCc2ccccc2)cc1OC (stereo unspecified)
AC50 (INS1): 6.7 µM (active)

O=C(NC(=S)N1CCN(c2nc(-c3ccccc3)cs2)CC1)c1cccnc1
EC50 (Streptokinase A): > 150 µM (not active) | EC50 (Streptococcus): > 150 µM (not active) | EC50 [1]: 5.55 µM (active)

COc1ccc(C2CC(=O)c3cnc(N4CCN(Cc5ccccc5)CC4)nc3C2)cc1 (stereo unspecified)
EC50 (Streptokinase A): > 150 µM (not active) | EC50 (Streptococcus): 21.6 µM (active) | EC50 [1]: 14.9 µM (active)

O=C1CSC(c2ccccc2F)N1 (stereo unspecified)
AC50 (INS1): > 260 µM (inactive)

O=C(Nc1c(C(=O)N2CCCCC2)cnn1-c1ccccc1)c1ccco1
AC50 (Cytochrome P450 3A4): 17.8 µM (inconclusive)

CN(C)S(=O)(=O)c1cccc(NC(=O)COC(=O)c2ccc(Br)o2)c1
AC50 (Cytochrome P450 3A4): 20 µM (inconclusive)

Cc1cc(C)n(C(=O)/C(C#N)=N/Nc2cc(Cl)cc(Cl)c2)n1
EC50 (Streptokinase A): > 150 µM (not active) | EC50 (Streptococcus): 12.3 µM (active) | EC50 [1]: 2.34 µM (active)

Cc1ccc(C23CC4CC(CC(C(=O)N5CCN(C)CC5)(C4)C2)C3)cc1
EC50 (Streptokinase A): > 150 µM (not active) | EC50 (Streptococcus): > 150 µM (not active) | EC50 [1]: > 150 µM (not active)

O=C(N/N=C/c1c[nH]c2ccccc12)c1ccn(Cc2ccc(Cl)cc2Cl)n1
AC50 (Cytochrome P450 3A4): 3.55 µM (inconclusive) | AC50 (Cytochrome P450 2D6): 7.08 µM (inconclusive)

CC(C)=CCc1c(-c2ccc(O)cc2O)oc2c3c(cc(O)c2c1=O)OC(C)(C)C=C3 [MORUSIN]
EC50 (Streptokinase A): 1.15 µM (active) | EC50 (Streptococcus): 2.96 µM (active) | EC50 [1]: 2.71 µM (active)
